Source: article PMC8744835, “Sterically Hindered Quaternary Phosphonium Salts (QPSs): Antimicrobial Activity and Hemolytic and Cytotoxic Properties” (International Journal of Molecular Sciences, 2021)

What was measured:
[1] = system: Trichophyton mentagrophytes var. gypseum 1773; assay: Fungicidal activity, serial dilution technique; type: cell-based; conditions: Trichophyton mentagrophytes, Tm, average of three ± SD, - means non-active
Procedure, shortened: (§1)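 Growth inhibition was scored every 24 h across 5 days at 37 °C in a broth serial dilution series (Mueller–Hinton Broth 2, 3.0 × 10^5 cfu/mL load). Triplicate experiments; minimum inhibitory concentration recorded.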

[2] = system: Candida albicans ATCC 10231; assay: Fungicidal activity, serial dilution technique; type: cell-based; conditions: Candida albicans, ATCC10231, Ca, average of three ± SD, - means non-active
Procedure, shortened: as §1

Chang liver cell line = assay: Cytotoxicity assay (Cytell Cell Imaging, DAPI/propidium iodide); type: cell-based, human; conditions: Homo sapiens, Chang liver, read-out: IC50 (concentration that causes the death of 50% of the cells), Chang liver cells
[3] = system: Bacillus cereus ATCC 10702 NCTC 8035; assay: Antimicrobial activity, serial dilution technique in Mueller–Hinton Broth 2; type: cell-based; conditions: average of three ± SD, - means non-active
Procedure, shortened: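 Compounds were serially diluted in Mueller–Hinton Broth 2 and inoculated with the Gram-positive strain Bacillus cereus ATCC 10702 NCTC 8035 at 3.0 × 10^5 cfu/mL, then incubated at 37 °C. Observations were taken every 24 h over 5 days in three repeat experiments. The MIC was the lowest concentration that stopped growth, with bacteriostatic absence of growth also noted.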

[4] = system: Staphylococcus aureus ATCC 6538P FDA 209P; assay: as above; type: cell-based; conditions: average of three ± SD, - means non-active
Procedure, shortened: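 Using a broth serial dilution method in Mueller–Hinton Broth 2, S. aureus ATCC 6538P FDA 209P (3.0 × 10^5 cfu/mL) was exposed to compounds at 37 °C and observed daily over 5 days. MIC was the lowest concentration preventing growth; bacteriostatic absence of growth was also noted, with three replicate experiments.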

[5] = system: Escherichia coli ATCC 25922; assay: as above; type: cell-based; conditions: Escherichia coli, ATCC25922, Ec; average of three ± SD; - means non-active; read-out: Minimum Inhibitory Concentration (MIC), Ec
Procedure, shortened: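 Growth inhibition is scored in Mueller–Hinton Broth 2 dilution series seeded with 3.0 × 10^5 cfu/mL and held at 37 °C for up to 5 days. Values reported are MICs, the lowest concentration without growth.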

[6] = system: Enterococcus faecalis ATCC 2921; assay: as above; type: cell-based; conditions: Enterococcus faecalis, ATCC2921, Ef, average of three ± SD, - means non-active
Procedure, shortened: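 Antibacterial activity against Enterococcus faecalis ATCC 2921 was assessed by serial dilution in Mueller–Hinton Broth 2 with a bacterial load of 3.0 × 10^5 cfu/mL. Cultures were incubated at 37 °C, with growth recorded every 24 h for 5 days, and the experiment was performed three times.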

[7] = system: Escherichia coli ATCC 25922; assay: as above; type: cell-based; conditions: Escherichia coli, ATCC25922, Ec; average of three ± SD; - means non-active; read-out: Minimum Bactericidal and Fungicidal Concentration (MBC, MFC), Ec
[8] = system: methicillin-resistant S. aureus MRSA-2; assay: as above; type: cell-based, Staphylococcus aureus; conditions: Staphylococcus aureus, MRSA, - means non-active
Procedure, shortened: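 Antimicrobial activity against methicillin-susceptible Staphylococcus aureus MRSA-2, a beta-lactam-resistant clinical isolate from a sinusitis patient at the Republican Clinical Hospital (Kazan), was assessed by serial dilution in Mueller–Hinton Broth 2. The inoculum was 3.0 × 10^5 cfu/mL. Cultures were incubated at 37 °C and read every 24 h for 5 days, in three repeat experiments.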

[9] = system: methicillin-resistant S. aureus MRSA-1; assay: as above; type: cell-based, Staphylococcus aureus; conditions: Staphylococcus aureus, MRSA, - means non-active
Procedure, shortened: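 Antimicrobial activity against methicillin-susceptible Staphylococcus aureus MRSA-1, a hospital isolate from a chronic tonsillitis patient that is resistant to fluoroquinolones and beta-lactams, was determined by serial dilution in Mueller–Hinton Broth 2. The bacterial load was 3.0 × 10^5 cfu/mL, incubation was at 37 °C, and growth was recorded every 24 h for 5 days.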

human erythrocytes = assay: Hemolytic activity; type: cell-based; conditions: red blood cells
Source text: An important characteristic when assessing the biological activity of new chemical compounds is their cytotoxic effect on eukaryotic cells. The ability of an investigated compound to cause the destruction of human erythrocytes illustrates its toxic effect on the internal environment. The hemolysis assay is a simple screening test that can help in the study of cytotoxicity in more complex models. Cell lines obtained from various human organs and tissues that allow for adequate estimation of the effects of new potential drugs on cell metabolism can serve as experimental models.
The hemolytic activity of the QPSs was estimated by comparing the optical density of a solution containing the test compound with that of blood at 100% hemolysis. The experiments were carried out as previously described.

CCCCCCCCCC[P+](C(C)(C)C)(C(C)(C)C)C(C)(C)C [Compound 10a] gave an MBC ([1]; read-out: Minimum Bactericidal and Fungicidal Concentration (MBC, MFC), Tm) of 125 ± 11 µg/mL, an MIC ([1]; read-out: Minimum Inhibitory Concentration (MIC), Tm) of 125 ± 11 µg/mL and an MBC ([2]; read-out: Minimum Bactericidal and Fungicidal Concentration (MBC, MFC), Ca) of 31.3 ± 2.3 µg/mL. It also gave an MIC ([2]; read-out: Minimum Inhibitory Concentration (MIC), Ca) of 31.3 ± 2.6 µg/mL, an IC50 (Chang liver cell line) of 66 µg/mL and an MIC ([3]; Bacillus cereus, Bc, read-out: Minimum Inhibitory Concentration (MIC), Bc) of 3.9 ± 0.2 µg/mL. For the same compound, the “Minimum Bactericidal and Fungicidal Concentration (MBC, MFC), Bc” value [3] was 31.3 ± 2.5 µg/mL, the “Minimum Bactericidal and Fungicidal Concentration (MBC, MFC), Sa” value [4] was 1.9 ± 0.1 µg/mL and the “Minimum Inhibitory Concentration (MIC), Sa” value [4] was 1.9 ± 0.1 µg/mL. For the same compound, the MIC [5] was 31.3 ± 2.7 µg/mL, the MBC ([6]; read-out: Minimum Bactericidal and Fungicidal Concentration (MBC, MFC), Ef) was 7.8 ± 0.6 µg/mL and the MIC ([6]; read-out: Minimum Inhibitory Concentration (MIC), Ef) was 7.8 ± 0.6 µg/mL. For the same compound, the MBC [7] was 31.3 ± 2.6 µg/mL, the MIC ([8]; MRSA-2 (resistant to beta-lactams), read-out: Minimum Inhibitory Concentration (MIC), MRSA-2) was 3.9 ± 0.2 µg/mL and the MBC ([8]; MRSA-2, read-out: Minimum Bactericidal and Fungicidal Concentration (MBC, MFC), MRSA-2) was 3.9 ± 0.2 µg/mL. The MIC ([9]; MRSA-1 (resistant to fluoroquinolones and beta-lactams), read-out: Minimum Inhibitory Concentration (MIC), MRSA-1) was 1.9 ± 0.1 µg/mL, the MBC ([9]; MRSA-1, read-out: Minimum Bactericidal and Fungicidal Concentration (MBC, MFC), MRSA-1) was 15.6 ± 1.2 µg/mL and the “HC50 (concentration that causes 50% hemolysis of erythrocytes)” value (human erythrocytes) was greater than 125 µg/mL.
